Series [1] in a line: Encapsulation efficiency, comparison PS-UTO vs. PS-DOX (section 4). It is filed as physicochemical. Conditions: PEG-PCL-PS. As for the experimental part:
Polymersomes were prepared by dissolving 5 mg of PEG-PCL in 0.3 mL acetone. The acetone was evaporated with nitrogen flow forming a thin polymeric film on the wall of the glass vial. The film was hydrated with 0.5 mL of PBS pH 7.4 previously purged with nitrogen flow, heated for 30 seconds in a 65° C. water bath, and sonicated for 30 seconds. The heating and sonication steps were repeated until the PS were formed and polymer aggregates were not observed in the suspension. The final volume of PS samples was 0.5 mL and the total polymer concentration 10 mg/mL.
For the PS encapsulation of UTO […] of UTO were dissolved in 100 µL of acetone (0.5 mM concentration) and added to the polymers dissolved in acetone (total amount of polymer - 5 mg, UTO concentration 0.125 mM). The acetone was evaporated to form the polymer/drug film and the PS were formed as described above.
For DOX encapsulation the polymeric film was hydrated with 2 mM DOX solution in PBS pH 7.4 and the PS were formed as described above. […]
The UTO and DOX PS-encapsulated amounts were quantified using UV-VIS spectrometry (Thermo Scientific, USA). For UTO quantification, serial dilutions of UTO in MeOH:water 1:1 were prepared and the absorbance at 485 nm was used for calibration. For DOX quantification, serial dilutions of DOX in PBS were prepared and also the absorbance at 485 nm was measured. […]

Series [2] is described as follows: Cumulative drug release from polymersomes. Format: physicochemical. Conditions: after 48 h, 37° C., PBS. The procedure:
To further evaluate the UTO and DOX cumulative release behavior from polymersomes, UTO-and DOX-loaded PS were incubated at 37° C. in PBS (0.25 mL) for different time periods (0; 1; 4; 24; and 48 h). The samples were centrifuged using Amicon Ultra centrifugal filters (MWCO 100 kDa) for 20 min at 6,000 g at RT. The fluorescence of the filtrates was measured at 485 nm/535 nm (0.1 s) using a Victor X5 Multilabel Microplate Reader (Perkin Elmer, USA) to quantify the released drug amount.

Series [3] is described as follows: Encapsulation efficiency in polymersomes (section 3.2). Format: physicochemical. Conditions: thin-film hydration, after size exclusion chromatography. As for the experimental part:
For the encapsulation of the drug inside PS, 50 nmols of drug were dissolved in 100 µL of acetone and added to the polymers dissolved in acetone (total amount of polymer was 5 mg). The acetone was evaporated to form the polymer/drug film and the PS were formed as described above.
PS were purified by size exclusion chromatography. Agarose beads with a diameter of 45-165 µm ([…] 4B gel) were used as stationary phase. The height of the Sephadex gel in a column was 8 cm (volume 25.13 mL). The PS sample was eluted with PBS pH 7.4.
The amount of encapsulated drug was quantified using a Nanodrop 2000c UV-VIS spectrophotometer (Thermo Scientific, USA). For drug quantification, serial dilutions of drug in MeOH:water 1:1 were prepared and the absorbance at 490 nm was measured. Using gathered data, the linear trend line was constructed in MS Excel program and the formula was further used to evaluate the concentration of drug inside PS.
For assessment of the UTO encapsulation efficiency the above depicted anthracycline derivative was encapsulated in a PS using a thin-film hydration method. After encapsulation the sample was purified by size exclusion chromatography to remove non-encapsulated drug. […]
On the technique in general: SEC sorts molecules by how far they enter the pores of the column.

In another series the test system is PPC-1 cells. As to the kind of experiment: Cytotoxicity in cultured cells. The conditions noted are these: 30 min treatment. Format: cell-based, human. The procedure:
(§1) For assessment of the UTO cytotoxicity the cytotoxicity of RPAR-UTO-PS, UTO-PS, PS, free UTO, and free DOX in cultured PPC-1 (FIG. 4) and M21 (FIG. 5) cells after 30 min treatment over a range of drug concentrations was tested.

A further series relates to M21 cells. As to the kind of experiment: Cytotoxicity in cultured cells. It is filed as cell-based, human. The conditions noted are these: 25 µM drug, 30 min treatment. As for the experimental part:
as §1

As usually defined, the cell viability is a per cent measure of how many cells are alive, often set against a control. Read a low cell viability as more harm to the cells. As to `COc1cccc2c1C(=O)c1c(O)c3c(c(O)c1C2=O)C[C@@](O)(C(=O)CO)C[C@@H]3O[C@H]1C[C@H](N)[C@H](O)[C@H](C)O1` [DOX, doxorubicin], the “encapsulation efficiency, times lower compared to UTO” value in series [1] was “approximately 20 times”. Also, the “encapsulation efficiency (EE)” value was determined as 2.3% in series [1] (film hydration, after purification) and 1% in series [3]. In addition, in series [2], the “drug released from the PS” value is reported as “approximately 10%”. The cell viability with PPC-1 cells (2.5 µM drug) is 87%; in the series with PPC-1 cells (25 µM drug), 56%; in the series on M21 cells it was 58%.
As a reminder, the viability is a read-out of living cells in per cent, often relative to untreated cells. For `CC(=O)OCOC(=O)N1CO[C@@H]2[C@H](C)O[C@@H](O[C@H]3C[C@](N)(C(C)O)Cc4c(O)c5c(c(O)c43)C(=O)c3ccccc3C5=O)C[C@@H]21` (some centres unmarked) [UTO], the “drug released from the PS” value in series [2] is listed as “less than 3%”. Also, the viability at 2.5 µM in the series with PPC-1 cells (Homo sapiens, 0.5 h, 2.5 µM drug, read-out: cell viability) stood at 68%. Further, the viability at 25 µM was determined as 14% in the series with PPC-1 cells (Homo sapiens, 0.5 h, 25 µM drug, read-out: cell viability) and 15% with M21 cells (Homo sapiens, 0.5 h, read-out: cell viability).

The record behind these values is patent US20230320986A1, “TARGETED ANT[…] SYSTEM FOR CANCER TREATMENT” (priority 2020, published 2023).
